The source of these data is patent US20250353842A1, “BICYCLIC AMINE CDK12 INHIBITORS” (Incyte Corporation, priority 2022, published 2025).

Chain of CDK12 complexed with Cyclin K (Q9NYV4 whole entry): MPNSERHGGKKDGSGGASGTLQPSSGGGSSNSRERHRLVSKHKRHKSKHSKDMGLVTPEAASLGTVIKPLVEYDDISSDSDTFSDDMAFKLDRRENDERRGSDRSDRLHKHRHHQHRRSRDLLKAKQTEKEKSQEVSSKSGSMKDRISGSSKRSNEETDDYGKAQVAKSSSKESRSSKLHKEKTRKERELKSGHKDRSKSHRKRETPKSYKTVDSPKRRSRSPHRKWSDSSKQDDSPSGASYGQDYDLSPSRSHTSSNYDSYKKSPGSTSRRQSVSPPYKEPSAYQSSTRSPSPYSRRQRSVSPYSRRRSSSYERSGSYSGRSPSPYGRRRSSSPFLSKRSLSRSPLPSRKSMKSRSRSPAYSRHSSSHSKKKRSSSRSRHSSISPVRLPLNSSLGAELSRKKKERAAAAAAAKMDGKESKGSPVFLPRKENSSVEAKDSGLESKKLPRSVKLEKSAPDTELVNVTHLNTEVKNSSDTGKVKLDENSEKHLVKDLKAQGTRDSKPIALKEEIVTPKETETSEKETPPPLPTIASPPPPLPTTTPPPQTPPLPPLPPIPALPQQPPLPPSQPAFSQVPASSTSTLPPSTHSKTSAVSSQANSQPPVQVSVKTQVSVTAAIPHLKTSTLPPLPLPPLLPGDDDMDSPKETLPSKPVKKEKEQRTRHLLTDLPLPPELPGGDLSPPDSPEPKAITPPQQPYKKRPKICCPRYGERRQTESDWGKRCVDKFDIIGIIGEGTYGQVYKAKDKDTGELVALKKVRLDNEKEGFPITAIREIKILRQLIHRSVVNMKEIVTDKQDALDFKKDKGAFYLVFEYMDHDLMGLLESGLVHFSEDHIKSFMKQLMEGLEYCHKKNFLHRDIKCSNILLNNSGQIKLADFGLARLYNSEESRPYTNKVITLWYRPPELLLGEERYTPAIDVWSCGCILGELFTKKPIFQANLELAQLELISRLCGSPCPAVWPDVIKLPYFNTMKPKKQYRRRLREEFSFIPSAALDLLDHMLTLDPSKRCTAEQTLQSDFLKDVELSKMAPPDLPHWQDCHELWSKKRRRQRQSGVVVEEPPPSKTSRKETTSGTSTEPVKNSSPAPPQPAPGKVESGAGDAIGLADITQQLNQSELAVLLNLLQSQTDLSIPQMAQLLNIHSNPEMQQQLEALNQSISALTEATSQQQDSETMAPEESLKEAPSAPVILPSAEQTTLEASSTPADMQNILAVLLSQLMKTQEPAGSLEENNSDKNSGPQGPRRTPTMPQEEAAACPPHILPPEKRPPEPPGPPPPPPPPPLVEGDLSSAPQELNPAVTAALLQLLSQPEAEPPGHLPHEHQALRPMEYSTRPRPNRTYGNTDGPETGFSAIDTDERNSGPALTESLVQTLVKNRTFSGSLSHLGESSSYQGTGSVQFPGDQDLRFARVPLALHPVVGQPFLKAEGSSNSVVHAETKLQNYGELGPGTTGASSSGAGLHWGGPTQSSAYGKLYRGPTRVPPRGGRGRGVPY
Chain of CDK12 complexed with Cyclin K (O75909 whole entry partner): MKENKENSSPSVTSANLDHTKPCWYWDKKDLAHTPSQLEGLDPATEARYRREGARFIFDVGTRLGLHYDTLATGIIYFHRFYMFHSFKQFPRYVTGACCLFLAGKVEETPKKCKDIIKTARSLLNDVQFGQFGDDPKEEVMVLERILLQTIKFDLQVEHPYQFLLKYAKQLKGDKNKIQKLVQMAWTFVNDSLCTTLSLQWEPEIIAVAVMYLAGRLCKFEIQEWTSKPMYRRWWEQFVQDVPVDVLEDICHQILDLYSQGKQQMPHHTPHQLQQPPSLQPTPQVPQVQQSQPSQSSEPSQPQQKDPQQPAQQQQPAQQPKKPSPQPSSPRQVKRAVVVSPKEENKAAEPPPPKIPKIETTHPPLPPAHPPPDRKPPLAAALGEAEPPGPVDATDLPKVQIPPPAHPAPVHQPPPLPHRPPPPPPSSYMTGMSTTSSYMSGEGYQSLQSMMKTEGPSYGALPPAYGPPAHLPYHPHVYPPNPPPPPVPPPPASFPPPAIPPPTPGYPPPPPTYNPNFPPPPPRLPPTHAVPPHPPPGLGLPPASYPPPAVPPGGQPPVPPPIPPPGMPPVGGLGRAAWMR

For the assay, the target named is CDK12 complexed with Cyclin K (Homo sapiens (Human), UniProt Q9NYV4). The assay is described as follows: CDK enzymatic assay (HTRF, LANCE Ultra kinase assay). To be noted: 60 minutes pre-incubation, 1 mM ATP. The format is biochemical. The procedure:
The following activity of the CDK enzymes in complex with their respective cyclins we assayed: CDK1 complexed with Cyclin B1; CDK2 complexed with Cyclin E1; CDK4 complexed with Cyclin D1; CDK6 complexed with Cyclin D1; CDK6 complexed with Cyclin D3; CDK9 complexed with Cyclin T1; CDK7 complexed with Cyclin H/MAT1; CDK2 complexed with Cyclin A2; CDK5 complexed with p35; CDK12 complexed with Cyclin K; CDK13 complexed with Cyclin K. These in vitro enzyme activity are assayed using homogeneous time-resolved energy transfer (HTRF), which measures phosphorylation of a peptide substrate. The LANCE® Ultra kinase assay (PerkinElmer) uses a ULight™-labeled EIF4E-binding protein 1 (THR37/46) peptide (DYSTTPGGTLFSTTPGTRI) (SEQ ID NO: 1) substrate and a Europium-labeled anti-phospho-4E-BP1 antibody (CDK2, CDK1, CDK4, CDK6, CDK9, CDK12, CDK13) or ULight™-labeled Myelin Basic Protein peptide (VTPRTPPP) (SEQ ID NO: 2) substrate and a Europium-labeled anti-phospho-MBP antibody (CDK7). Each CDK enzyme activity assays utilized human CDK co-expressed as N-terminal GST-tagged protein with its full length cyclin partner using a baculovirus expression system.
Enzyme was pre-incubated with compounds for 30 minutes (CDK1,2,4,6,9) or 60 minutes (CDK7, CDK12, CDK13) prior to addition of ATP and Ulight-peptide (1 mM and 50 nM final, respectively), in assay buffer containing 50 mM HEPES pH 7.5, 1 mM EGTA, 10 mM MgCl2, 2 mM DTT, 0.05 mg/mL BSA, and 0.01% Tween 20.
The reaction was then incubated for 60-90 minutes at room temperature. The reactions were stopped by the addition of EDTA and Europium labeled antibody, for a final concentration of 15 mM and 1.0-1.5 nM, respectively. HTRF signals were read after 15-120 minutes. A ratio of fluorescence transferred to the labeled substrate (665 nm) relative to fluorescence of the Europium donor (620 nm) represents the extent of phosphorylation. Ratios for treated wells were normalized to DMSO only (100% activity) and no enzyme (0% activity) controls. Normalized data was analyzed using a three or four parameter dose response curve to determine IC50 for each compound and are shown in Table A. Control reference inhibitors were included on each plate.
In the case of `N#Cc1cnc(N[C@@H]2CCC[C@H](n3cnc4cccnc43)C2)nc1-c1cnn2c1OCCC2` [Example 25, 2-(((1R,3S)-3-(3H-Imidazo[4,5-b]pyridin-3-yl)cyclohexyl)amino)-4-(6,7-dihydro-5H-pyrazolo[5,1-b][1,3]oxazin-3-yl)pyrimidine-5-carbonitrile], the IC50 is 50 to 500 nM. Compound `Cn1ncc(-c2nc(N[C@@H]3CCC[C@H](n4cnc5cccnc54)C3)ncc2C#N)c1CO` [Example 26, 2-(((1R,3S)-3-(3H-Imidazo[4,5-b]pyridin-3-yl)cyclohexyl)amino)-4-(5-(hydroxymethyl)-1-methyl-1H-pyrazol-4-yl)pyrimidine-5-carbonitrile] gave an IC50 of 50 to 500 nM. The result for `CC(C)n1cnc(-c2nc(N[C@@H]3CCC[C@H](n4cnc5cccnc54)C3)ncc2C#N)c1` [Example 27, 2-(((1R,3S)-3-(3H-Imidazo[4,5-b]pyridin-3-yl)cyclohexyl)amino)-4-(1-isopropyl-1H-imidazol-4-yl)pyrimidine-5-carbonitrile] reads less than 50 nM. For the compound `Cc1cnc(-c2nc(N[C@@H]3CCC[C@H](n4cnc5cc(C#N)cnc54)C3)ncc2C#N)n1C` [Example 29, 3-((1S,3R)-3-((5-Cyano-4-(1,5-dimethyl-1H-imidazol-2-yl)pyrimidin-2-yl)amino)cyclohexyl)-3H-imidazo[4,5-b]pyridine-6-carbonitrile], the IC50 lay within 50 to 500 nM. The result for `Cc1c(Nc2nc(N[C@@H]3CCC[C@H](n4cnc5cc(C#N)cnc54)C3)ncc2C#N)cnn1C` [Example 30, 3-((1S,3R)-3-((5-Cyano-4-((1,5-dimethyl-1H-pyrazol-4-yl)amino)pyrimidin-2-yl)amino)cyclohexyl)-3H-imidazo[4,5-b]pyridine-6-carbonitrile] reads 50 to 500 nM; that for `N#Cc1cnc(N[C@@H]2CCC[C@H](n3cnc4cncc(C#N)c43)C2)nc1-c1cnn(CC(F)F)c1` [Example 31, 1-((1S,3R)-3-((5-Cyano-4-(1-(2,2-difluoroethyl)-1H-pyrazol-4-yl)pyrimidin-2-yl)amino)cyclohexyl)-1H-imidazo[4,5-c]pyridine-7-carbonitrile], less than 50 nM.

For `N#Cc1cnc(N[C@@H]2CCC[C@H](n3cnc4cncc(C#N)c43)C2)nc1-c1cnn(CCO)c1` [Example 32, 1-((1S,3R)-3-((5-Cyano-4-(1-(2-hydroxyethyl)-1H-pyrazol-4-yl)pyrimidin-2-yl)amino)cyclohexyl)-1H-imidazo[4,5-c]pyridine-7-carbonitrile], the 50% inhibitory concentration (IC50) is less than 50 nM. In turn, `CC(C)n1cc(-c2nc(N[C@@H]3CCC[C@H](n4cnc5cncc(C#N)c54)C3)ncc2C#N)cn1` [Example 33, 1-((1S,3R)-3-((5-Cyano-4-(1-isopropyl-1H-pyrazol-4-yl)pyrimidin-2-yl)amino)cyclohexyl)-1H-imidazo[4,5-c]pyridine-7-carbonitrile] yielded an IC50 of less than 50 nM.

In turn, `N#Cc1cnc(N[C@@H]2CCC[C@H](n3cnc4cncc(C#N)c43)C2)nc1-c1cnn(C2CC2)c1` [Example 34, 1-((1S,3R)-3-((5-Cyano-4-(1-cyclopropyl-1H-pyrazol-4-yl)pyrimidin-2-yl)amino)cyclohexyl)-1H-imidazo[4,5-c]pyridine-7-carbonitrile] displayed an IC50 of less than 50 nM.

`N#Cc1cnc2c(c1)ncn2[C@@H]1CCC[C@H](Nc2ncc(C#N)c(-c3cnn(CC(F)F)c3)n2)C1` [Example 35, 3-((1R,3S)-3-((5-Cyano-4-(1-(2,2-difluoroethyl)-1H-pyrazol-4-yl)pyrimidin-2-yl)amino)cyclohexyl)-3H-imidazo[4,5-b]pyridine-6-carbonitrile] displayed an IC50 greater than 500 nM. On to `N#Cc1cnc(N[C@@H]2CCC[C@H](n3cnc4cc(F)cc(Cl)c43)C2)nc1-c1cnn(CC(F)F)c1` [Example 36, 2-(((1R,3S)-3-(7-Chloro-5-fluoro-1H-benzo[d]imidazol-1-yl)cyclohexyl)amino)-4-(1-(2,2-difluoroethyl)-1H-pyrazol-4-yl)pyrimidine-5-carbonitrile], for which the IC50 was less than 50 nM.

Take `N#Cc1cnc2c(c1)ncn2[C@H]1CCC[C@@H](Nc2ncc(C#N)c(-c3cnn(C4CCC4)c3)n2)C1` [Example 38, 3-((1S,3R)-3-((5-Cyano-4-(1-cyclobutyl-1H-pyrazol-4-yl)pyrimidin-2-yl)amino)cyclohexyl)-3H-imidazo[4,5-b]pyridine-6-carbonitrile]: the IC50 is less than 50 nM.

`N#Cc1cnc(N[C@@H]2CCC[C@H](n3cnc4cncc(Br)c43)C2)nc1-c1cnn(CC(F)F)c1` [Example 39, 2-(((1R,3S)-3-(7-Bromo-1H-imidazo[4,5-c]pyridin-1-yl)cyclohexyl)amino)-4-(1-(2,2-difluoroethyl)-1H-pyrazol-4-yl)pyrimidine-5-carbonitrile] came in with an IC50 of less than 50 nM. The result for `N#Cc1cnc(N[C@@H]2CCC[C@H](n3cnc4cc(F)cc(Br)c43)C2)nc1-c1cnn(CC(F)F)c1` [Example 40, 2-(((1R,3S)-3-(7-Bromo-5-fluoro-1H-benzo[d]imidazol-1-yl)cyclohexyl)amino)-4-(1-(2,2-difluoroethyl)-1H-pyrazol-4-yl)pyrimidine-5-carbonitrile] reads less than 50 nM; that for `N#Cc1cnc(N[C@@H]2CCC[C@H](n3cnc4cccc(Br)c43)C2)nc1-c1cnn(CC(F)F)c1` [Example 41, 2-(((1R,3S)-3-(7-Bromo-1H-benzo[d]imidazol-1-yl)cyclohexyl)amino)-4-(1-(2,2-difluoroethyl)-1H-pyrazol-4-yl)pyrimidine-5-carbonitrile], less than 50 nM. Under `N#Cc1cnc(N[C@@H]2CCC[C@H](n3cnc4cnc(Cl)c(Br)c43)C2)nc1-c1cnn(CC(F)F)c1` [Example 42, 2-(((1R,3S)-3-(7-Bromo-6-chloro-1H-imidazo[4,5-c]pyridin-1-yl)cyclohexyl)amino)-4-(1-(2,2-difluoroethyl)-1H-pyrazol-4-yl)pyrimidine-5-carbonitrile] stands less than 50 nM. The result for `N#Cc1ccc2ncn([C@H]3CCC[C@@H](Nc4ncc(C#N)c(-c5cnn(CC(F)F)c5)n4)C3)c2c1` [Example 43, 1-((1S,3R)-3-((5-Cyano-4-(1-(2,2-difluoroethyl)-1H-pyrazol-4-yl)pyrimidin-2-yl)amino)cyclohexyl)-1H-benzo[d]imidazole-6-carbonitrile] reads less than 50 nM. In turn, `N#Cc1cnc(N[C@@H]2CCC[C@H](n3cnc4cncc(Cl)c43)C2)nc1-c1cnn(CC(F)F)c1` [Example 45, 2-(((1R,3S)-3-(7-Chloro-1H-imidazo[4,5-c]pyridin-1-yl)cyclohexyl)amino)-4-(1-(2,2-difluoroethyl)-1H-pyrazol-4-yl)pyrimidine-5-carbonitrile] came in with an IC50 of less than 50 nM.

The compound `N#Cc1cc2c(cn1)ncn2[C@H]1CCC[C@@H](Nc2ncc(C#N)c(-c3cnn(CC(F)F)c3)n2)C1` [Example 46, 1-((1S,3R)-3-((5-Cyano-4-(1-(2,2-difluoroethyl)-1H-pyrazol-4-yl)pyrimidin-2-yl)amino)cyclohexyl)-1H-imidazo[4,5-c]pyridine-6-carbonitrile] gave an IC50 of less than 50 nM. Under `N#Cc1ccc2ncn([C@H]3CCC[C@@H](Nc4ncc(C#N)c(-c5cnn(CC(F)F)c5)n4)C3)c2n1` [Example 47, 3-((1S,3R)-3-((5-Cyano-4-(1-(2,2-difluoroethyl)-1H-pyrazol-4-yl)pyrimidin-2-yl)amino)cyclohexyl)-3H-imidazo[4,5-b]pyridine-5-carbonitrile] stands less than 50 nM; under `Cc1ncc(C#N)c2c1ncn2[C@H]1CCC[C@@H](Nc2ncc(C#N)c(-c3cnn(CC(F)F)c3)n2)C1` [Example 48, 1-((1S,3R)-3-((5-Cyano-4-(1-(2,2-difluoroethyl)-1H-pyrazol-4-yl)pyrimidin-2-yl)amino)cyclohexyl)-4-methyl-1H-imidazo[4,5-c]pyridine-7-carbonitrile], less than 50 nM. Under `N#Cc1cnc(N[C@@H]2CCC[C@H](n3cnc4cc(F)cc(C#N)c43)C2)nc1-c1cnn(CC(F)F)c1` [Example 49, 1-((1S,3R)-3-((5-Cyano-4-(1-(2,2-difluoroethyl)-1H-pyrazol-4-yl)pyrimidin-2-yl)amino)cyclohexyl)-5-fluoro-1H-benzo[d]imidazole-7-carbonitrile] stands less than 50 nM. The result for `N#Cc1cc(C#N)c2c(c1)ncn2[C@H]1CCC[C@@H](Nc2ncc(C#N)c(-c3cnn(CC(F)F)c3)n2)C1` [Example 50, 1-((1S,3R)-3-((5-Cyano-4-(1-(2,2-difluoroethyl)-1H-pyrazol-4-yl)pyrimidin-2-yl)amino)cyclohexyl)-1H-benzo[d]imidazole-5,7-dicarbonitrile] reads less than 50 nM.

For orientation: IC50 means the concentration that gives 50% inhibition.
